Data: ChEMBL document CHEMBL5625252, “Synthesis of peptidomimetics as antibiotic adjuvants for combination with aztreonam to combat MDR Pseudomonas aeruginosa” (Eur J Med Chem, 2023)
≈ marks a conversion by molar mass, not a printed value.

How the values were obtained:
Assay type in all cases: functional
[1] = system: Escherichia coli; test: Antibacterial activity against ESBLs (-) Escherichia coli ATCC 25922 assessed as inhibition of bacterial growth incubated for 18 hrs by agar dilution method
[2] = system: Escherichia coli; test: Antibacterial activity against NDM-1 (+) Escherichia coli CDC 1001728 assessed as inhibition of bacterial growth incubated for 18 hrs by agar dilution method
[3] = system: Escherichia coli; test: Antibacterial activity against ESBLs (+) Escherichia coli 16-1 assessed as inhibition of bacterial growth incubated for 18 hrs by agar dilution method
[4] = system: Escherichia coli; test: Antibacterial activity against mcr-1 (+) Escherichia coli 08-85 assessed as inhibition of bacterial growth incubated for 18 hrs by agar dilution method
[5] = system: Klebsiella pneumoniae; test: Antibacterial activity against ESBLs (+) Klebsiella pneumoniae ATCC 700603 assessed as inhibition of bacterial growth incubated for 18 hrs by agar dilution method
[6] = system: Klebsiella pneumoniae; test: Antibacterial activity against NDM-1 (+) Klebsiella pneumoniae 2146 assessed as inhibition of bacterial growth incubated for 18 hrs by agar dilution method
[7] = system: Klebsiella pneumoniae; test: Antibacterial activity against ESBLs (+) Klebsiella pneumoniae 16-14 assessed as inhibition of bacterial growth incubated for 18 hrs by agar dilution method
[8] = system: Klebsiella pneumoniae; test: Antibacterial activity against NDM-1 (+) Klebsiella pneumoniae 09-20 assessed as inhibition of bacterial growth incubated for 18 hrs by agar dilution method
[9] = system: Pseudomonas aeruginosa; test: Antibacterial activity against BL (+) Pseudomonas aeruginosa ATCC 27853 assessed as inhibition of bacterial growth incubated for 18 hrs by agar dilution method
[10] = system: Pseudomonas aeruginosa; test: Antibacterial activity against Pseudomonas aeruginosa PAO1 assessed as inhibition of bacterial growth incubated for 18 hrs by agar dilution method
[11] = system: Pseudomonas aeruginosa; test: Synergistic antibacterial activity against Pseudomonas aeruginosa PAO1 assessed as aztreonam MIC upto […] ug/ml incubated for 18 hrs by checkerboard method (reference value: 8 microg/ml)
[12] = system: Pseudomonas aeruginosa; test: Antibacterial activity against Pseudomonas aeruginosa 16-11 assessed as inhibition of bacterial growth incubated for 18 hrs by agar dilution method
[13] = system: Pseudomonas aeruginosa; test: Antibacterial activity against Pseudomonas aeruginosa 21-8 assessed as inhibition of bacterial growth incubated for 18 hrs by agar dilution method
[14] = system: Pseudomonas aeruginosa; test: Antibacterial activity against Pseudomonas aeruginosa 13-35 assessed as inhibition of bacterial growth incubated for 18 hrs by agar dilution method
[15] = system: Pseudomonas aeruginosa; test: Antibacterial activity against Pseudomonas aeruginosa 23-Y122 assessed as inhibition of bacterial growth incubated for 18 hrs by agar dilution method
[16] = system: Pseudomonas aeruginosa; test: Antibacterial activity against Pseudomonas aeruginosa 23-Y372 assessed as inhibition of bacterial growth incubated for 18 hrs by agar dilution method
[17] = system: Pseudomonas aeruginosa; test: Antibacterial activity against Pseudomonas aeruginosa 23-Y417 assessed as inhibition of bacterial growth incubated for 18 hrs by agar dilution method; conditions: read-out: MIC
[18] = system: Pseudomonas aeruginosa; test: Antibacterial activity against Pseudomonas aeruginosa 23-Y511 assessed as inhibition of bacterial growth incubated for 18 hrs by agar dilution method
[19] = system: Pseudomonas aeruginosa; test: Antibacterial activity against Pseudomonas aeruginosa 12-1 assessed as inhibition of bacterial growth incubated for 18 hrs by agar dilution method
[20] = system: Pseudomonas aeruginosa; test: Antibacterial activity against Pseudomonas aeruginosa 13-3 assessed as inhibition of bacterial growth incubated for 18 hrs by agar dilution method
[21] = system: Pseudomonas aeruginosa; test: Antibacterial activity against Pseudomonas aeruginosa 13-17 assessed as inhibition of bacterial growth incubated for 18 hrs by agar dilution method
[22] = system: Pseudomonas aeruginosa; test: Antibacterial activity against Pseudomonas aeruginosa 16-2 assessed as inhibition of bacterial growth incubated for 18 hrs by agar dilution method
[23] = system: Pseudomonas aeruginosa; test: Antibacterial activity against Pseudomonas aeruginosa 21-2 assessed as inhibition of bacterial growth incubated for 18 hrs by agar dilution method
[24] = system: Pseudomonas aeruginosa; test: Antibacterial activity against Pseudomonas aeruginosa 23-Y539 assessed as inhibition of bacterial growth incubated for 18 hrs by agar dilution method
[25] = system: Pseudomonas aeruginosa; test: Antibacterial activity against Pseudomonas aeruginosa 19-46 assessed as inhibition of bacterial growth incubated for 18 hrs by agar dilution method
[26] = system: Pseudomonas aeruginosa; test: Antibacterial activity against Pseudomonas aeruginosa 19-55 assessed as inhibition of bacterial growth incubated for 18 hrs by agar dilution method
[27] = system: Pseudomonas aeruginosa; test: Antibacterial activity against Pseudomonas aeruginosa 21-7 assessed as inhibition of bacterial growth incubated for 18 hrs by agar dilution method
[28] = system: Pseudomonas aeruginosa; test: Antibacterial activity against Pseudomonas aeruginosa 23-Y364 assessed as inhibition of bacterial growth incubated for 18 hrs by agar dilution method

Row | Compound | MIC [1] [µg/mL] | MIC [2] [µg/mL] | MIC [3] [µg/mL] | MIC [4] [µg/mL] | MIC [5] [µg/mL] | MIC [6] [µg/mL] | MIC [7] [µg/mL] | MIC [8] [µg/mL] | MIC [9] [µg/mL] | MIC [10] [µg/mL] | MIC [11] [µg/mL] | also measured
1 | C[C@H]1[C@H](NC(=O)/C(=N\OCC(=O)N2C3CCCC3C[C@@H]2C(=O)O)c2csc(N)n2)C(=O)N1S(=O)(=O)O (stereo partly specified) | 1 (≈ 1.84 µM) | 16 (≈ 29.4 µM) | 1 (≈ 1.84 µM) | > 64 | > 64 | > 64 | 64 (≈ 118 µM) | 8 (≈ 14.7 µM) | > 64 | > 64 | – | –
2 | NCCC[C@H](NCc1ccc2ccccc2c1)C(=O)N[C@@H](CCc1ccccc1)C(=O)O | – | – | – | – | – | – | – | – | – | – | 8 | –
3 | NCCC[C@H](NC(=O)CCc1ccc(Cl)cc1)C(=O)Nc1ccc2ccccc2c1 | – | – | – | – | – | – | – | – | – | – | 8 | –
4 | C[C@H]1[C@H](NC(=O)/C(=N\OCC(=O)N2CCC(C(=O)O)CC2)c2csc(N)n2)C(=O)N1S(=O)(=O)O | 4 (≈ 7.71 µM) | 16 (≈ 30.9 µM) | 16 (≈ 30.9 µM) | > 64 | > 64 | > 64 | > 64 | > 64 | > 64 | > 64 | – | –
5 | COC(=O)[C@H](Cc1ccccc1)NC(=O)[C@H](CCCN)NC(=O)c1ccc2ccccc2c1 | – | – | – | – | – | – | – | – | – | – | 8 | –
6 | POLYMYXIN B | 1 | 1 | 0.25 | 8 | 2 | 1 | 1 | 16 | 4 | 8 | – | –
7 | C[C@H]1[C@H](NC(=O)/C(=N\OCC(=O)N2CCCC(C(=O)O)C2)c2csc(N)n2)C(=O)N1S(=O)(=O)O (stereo partly specified) | 0.5 (≈ 0.964 µM) | 16 (≈ 30.9 µM) | 2 (≈ 3.86 µM) | > 64 | > 64 | > 64 | > 64 | 64 (≈ 123 µM) | > 64 | > 64 | – | –
8 | C[C@@H](O/N=C(\C(=O)N[C@@H]1C(=O)N(OS(=O)(=O)O)C1(C)C)c1csc(N)n1)C(=O)O | 1 (≈ 2.22 µM) | – | 0.5 (≈ 1.11 µM) | 1 (≈ 2.22 µM) | 4 (≈ 8.86 µM) | 8 (≈ 17.7 µM) | 0.5 (≈ 1.11 µM) | 1 (≈ 2.22 µM) | 64 (≈ 142 µM) | 64 (≈ 142 µM) | – | –
9 | NCCC[C@H](NC(=O)CCc1ccccc1)C(=O)Nc1ccc2ccccc2c1 | – | – | – | – | – | – | – | – | – | – | 2 | –
10 | CC(C)(O/N=C(\C(=O)N[C@@H]1C(=O)N2C(C(=O)[O-])=C(C[n+]3ccccc3)CS[C@H]12)c1csc(N)n1)C(=O)O [CEFTAZIDIME] | – | – | – | – | – | – | – | – | – | 2 (≈ 3.66 µM) | – | MIC [12]: > 256 µg/mL; MIC [13]: 1 µg/mL (≈ 1.83 µM); MIC [14]: 16 µg/mL (≈ 29.3 µM); MIC [15]: 256 µg/mL (≈ 468 µM); MIC [16]: > 256 µg/mL; MIC [17]: 4 µg/mL (≈ 7.32 µM); MIC [18]: 1 µg/mL (≈ 1.83 µM); MIC [19]: 64 µg/mL (≈ 117 µM); MIC [20]: 64 µg/mL (≈ 117 µM); MIC [21]: 64 µg/mL (≈ 117 µM); MIC [22]: 128 µg/mL (≈ 234 µM); MIC [23]: 64 µg/mL (≈ 117 µM); MIC [24]: 32 µg/mL (≈ 58.5 µM); MIC [25]: 128 µg/mL (≈ 234 µM); MIC [26]: 128 µg/mL (≈ 234 µM); MIC [27]: > 256 µg/mL; MIC [28]: 64 µg/mL (≈ 117 µM)
11 | C[C@H]1[C@H](NC(=O)/C(=N\OCCN)c2nsc(N)n2)C(=O)N1S(=O)(=O)O | 32 (≈ 81.3 µM) | 16 (≈ 40.7 µM) | 16 (≈ 40.7 µM) | > 64 | 32 (≈ 81.3 µM) | 32 (≈ 81.3 µM) | > 64 | 64 (≈ 163 µM) | > 64 | > 64 | – | –
12 | NCCC[C@H](NC(=O)CCc1ccc([N+](=O)[O-])cc1)C(=O)Nc1ccc2ccccc2c1 | – | – | – | – | – | – | – | – | – | – | 8 | –
13 | NCCC[C@H](NC(=O)c1ccc2ccccc2c1)C(=O)N[C@@H](Cc1ccccc1)C(N)=O | – | – | – | – | – | – | – | – | – | – | 8 | –
14 | NCCC[C@H](NC(=O)CCc1ccc(C(F)(F)F)cc1)C(=O)Nc1ccc2ccccc2c1 | – | – | – | – | – | – | – | – | – | – | 8 | –
15 | NCCC[C@H](NC(=O)Cc1ccc2ccccc2c1)C(=O)N[C@@H](Cc1ccccc1)C(=O)O | – | – | – | – | – | – | – | – | – | – | 8 | –
16 | NCCC[C@H](NC(=O)CCc1ccc(F)cc1)C(=O)Nc1ccc2ccccc2c1 | – | – | – | – | – | – | – | – | – | – | 8 | –
